# Measurements from patent US6740335B1, “Liposomal camptothecin formulations” (priority 1997, dated 2004).
# Where a name gives a salt, the structure may show the parent alone.
# Columns and labels:
# U937 (Lymphoma) = experiment: 3H-thymidine incorporation cytotoxicity assay, U937; type: cell-based, human; settings: Homo sapiens, U-937; U937, 42 h; read-out: Median IC50
# Experimental: (§1) In vitro efficacy screening has been performed using GI147211 and liposomal formulations of GI147211. […] Standard tumor cell-based cytototoxicity assays assessing ^3H-thymidine incorporation were performed.
# (§2) Tumor cells were seeded into 96-well tissue culture plates (1×10^4 cells/well)≡4 h prior to experimentation. […] Positive and negative (Tris treated) control groups were included on each assay plate. Tumor cells were then labeled with 0.25 μCi of [methyl-^3H] thymidine and incubated for 42 h under tissue culture conditions (37° C., 5% CO2, 100% relative humidity), except for C6, U251, A673 and B16-F1 cells which were incubated for 24 h. Cells were then lysed, harvested onto glass-fiber filters and unincorporated [methyl-^3H] thymidine removed by filter washing. Filters were processed for scintillation counting and cpm-^3H/well determined. […] Data are presented from multiple sets of experimentation, involving multiple liposomal formulations of GI147211.
# HT-29 (Colon) = experiment: 3H-thymidine incorporation cytotoxicity assay, HT-29; type: cell-based, human; settings: Homo sapiens, HT-29, 42 h; read-out: Median IC50
# Experimental: as §1, §2
# [1] = Precipitation of GI147211 with counterion excipients (HPLC of supernatant); type: physicochemical
# Experimental: The excipients include, but are not limited to, the acid, sodium or ammonium forms of monovalent anions such as chloride, acetate, lactobionate and formnate; divalent anions such as succinate, aspartate and sulfate; and trivalent ions such as citrate and phosphate. To assess the relative degree of precipitation brought about with each excipient, 5 mg/ml solutions of GI147211 were prepared at low pH (2±0.5) and different counterions were added. The solutions of GI147211 and counterion were allowed to stand for 15 to 20 minutes, then centrifuiged at 3600 rpm for 10 minutes to isolate the precipitate. The quantity of GI147211 remaining in solution for each sample was then assessed by assaying the supernatants using HPLC with the following conditions: C18 ODS Hypersil column from Keystone, mobile phase of 30/70 (v/v) acetonitrile/0.1% acetic acid +0.1% aqueous triethylamine buffer, pH 3.30 with LTV detection at 270 nm. The amount of GI147211 precipitated was also tabulated by the taking the difference of the concentration of the remaining soluble fraction from Smg/ml, the original GI1147211 concentration in solution. Each number is expressed in Table 6 as percentage of the original solution concentration of 5 mg/ml.
# To more fully explore the concentration dependence of GI147211 precipitation, 5 mg/ml solutions of the drug were prepared as described in Example 3 and titrated with increasing concentrations of the counterion excipients sulfate, citrate, phosphate and chloride. The solutions of GI147211 and counterion were allowed to stand for 15 to 20 minutes, then centrifuged at 3600 rpm for 10 minutes to isolate the precipitate and the supernatants were assayed as described in Example 3.
# In a separate study, precipitation of the camptothecin GI147211 was examined at the predicted concentration in the interior of the liposome (approx. 40 mg/ml camptothecin GI147211) after loading in the presence of 50 mM ammonium sulfate.
# ES2 Tumor Xenograft = experiment: Repeat dose efficacy at equal toxic doses, ES2 xenograft; settings: ES2, 14 mg/kg, days 1, 8 and 15
# Experimental: (§3) In all the studies performed, subcutaneous tumors implanted on the anterior flank of nude mice were allowed to grow to an established size of 200+/−50 mm^3 prior to dosing drugs.
# Drugs were dosed on days 1,8 and 15.
# BT-20 (Breast) = experiment: 3H-thymidine incorporation cytotoxicity assay, BT-20; type: cell-based, human; settings: Homo sapiens, BT-20, 42 h; read-out: Median IC50
# Experimental: as §1, §2
# LS-513 (Cecum) = experiment: 3H-thymidine incorporation cytotoxicity assay, LS-513; type: cell-based, human; settings: Homo sapiens, LS-513, 42 h; read-out: Median IC50
# Experimental: as §1, §2
# KB Head/Neck Tumor = experiment: Xenograft efficacy at identical dose, KB; type: in vivo, nude mice; settings: for Log 10 Cell Kill / T-C (time to reach 1,000% Tumor Volume, treated vs control): QD7 × 3; for % TGI: QD7 × 3, day 22
# Experimental: as §3
# The xenograft models included the HT29 and SW48 human colon tumor lines, and the KB and KBV head-neck tumors. Drugs were dosed at either 6 or 9 mg/kg intravenously, on a weekly schedule for 3 consecutive weeks. In the SW48 xenograft study, the animals received a total of two cycles of therapy (6 injections), with a 10 day recovery period separating the two therapeutic courses. In the HT29 xenograft study a 12 and 14 mg/kg dose group was added.
# U251 (Glioblastoma) = experiment: 3H-thymidine incorporation cytotoxicity assay, U251; type: cell-based, human; settings: Homo sapiens, U-251; U251, 24 h; read-out: Median IC50
# Experimental: as §1, §2
# [2] = tested on: H460 (Lung, Non-Small Cell); experiment: 3H-thymidine incorporation cytotoxicity assay, H460; type: cell-based, human; settings: Homo sapiens, NCI-H460, 42 h; read-out: Median IC50
# Experimental: as §1, §2
# ES-2 (ovarian carcinoma) = experiment: 3H-thymidine incorporation cytotoxicity assay, ES-2; type: cell-based, human; settings: Homo sapiens; ES-2, 42 h; read-out: Median IC50
# Experimental: as §1, §2
# MDA-MB-468 (Breast) = experiment: 3H-thymidine incorporation cytotoxicity assay, MDA-MB-468; type: cell-based, human; settings: Homo sapiens, MDA-MB-468, 42 h; read-out: Median IC50
# Experimental: as §1, §2
# LOX (melanoma) = experiment: 3H-thymidine incorporation cytotoxicity assay, LOX; type: cell-based, human; settings: Homo sapiens, 42 h, read-out: Median IC50
# Experimental: as §1, §2
# [3] = tested on: KBV (oralpharyngial carcinoma, vincristine resistant phenotype); experiment: 3H-thymidine incorporation cytotoxicity assay, KBV; type: cell-based, human; settings: Homo sapiens, 42 h, read-out: Median IC50
# Experimental: as §1, §2
# [4] = 5 mg/ml GI147211, pH 2±0.5, aspartate 50 mM
# [5] = 5 mg/ml GI147211, pH 2±0.5, chloride 100 mM
# [6] = 5 mg/ml GI147211, pH 2±0.5, citrate 20 mM
# [7] = 5 mg/ml GI147211, pH 2±0.5, citrate 50 mM
# [8] = 5 mg/ml GI147211, pH 2±0.5, formate 50 mM
# [9] = 5 mg/ml GI147211, pH 2±0.5, lactobionate 50 mM
# [10] = 5 mg/ml GI147211, pH 2±0.5, phosphate 100 mM
# [11] = 5 mg/ml GI147211, pH 2±0.5, succinate 500 mM
# [12] = 5 mg/ml GI147211, pH 2±0.5, sucrose 300 mM
# [13] = 5 mg/ml GI147211, pH 2±0.5, sulfate 20 mM
# [14] = 5 mg/ml GI147211, pH 2±0.5, sulfate 50 mM
# [15] = approx. 40 mg/ml GI147211, 50 mM ammonium sulfate
smiles,measurement,setting,value
"CCC1(O)C(=O)OCc2c1cc1n(c2=O)Cc2c-1nc1cc3c(cc1c2CN1CCN(C)CC1)OCCO3 (stereo in doubt) [GI147211, 7-(4-methylpiperazinomethylene)-10,11-ethylenedioxy-20(S)-camptothecin dihydrochloride]",IC50,U937 (Lymphoma),4.22 ng/mL
same,IC50,HT-29 (Colon),0.763 ng/mL
same,% GI147211 Precipitated,[1]; [4],57.8%
same,% GI147211 Remaining in Solution,[1]; [4],42.2%
same,% GI147211 Precipitated,[1]; [5],85.2%
same,% GI147211 Remaining in Solution,[1]; [5],14.8%
same,% GI147211 Precipitated,[1]; [6],98.8%
same,% GI147211 Remaining in Solution,[1]; [6],1.2%
same,% GI147211 Precipitated,[1]; [7],99.1%
same,% GI147211 Remaining in Solution,[1]; [7],0.9%
same,% GI147211 Precipitated,[1]; [8],64.7%
same,% GI147211 Remaining in Solution,[1]; [8],35.3%
same,% GI147211 Precipitated,[1]; [9],6.2%
same,% GI147211 Remaining in Solution,[1]; [9],93.8%
same,% GI147211 Precipitated,[1]; [10],82.3%
same,% GI147211 Remaining in Solution,[1]; [10],17.7%
same,% GI147211 Precipitated,[1]; [11],98.8%
same,% GI147211 Remaining in Solution,[1]; [11],1.2%
same,% GI147211 Precipitated,[1]; [12],8.2%
same,% GI147211 Remaining in Solution,[1]; [12],91.8%
same,% GI147211 Precipitated,[1]; [13],97.9%
same,% GI147211 Remaining in Solution,[1]; [13],2.1%
same,% GI147211 Precipitated,[1]; [14],98.1%
same,% GI147211 Remaining in Solution,[1]; [14],1.9%
same,drug precipitated,[1]; [15],~99%
same,remained in solution,[1]; [15],0.5%
same,drug precipitated,[1]; chloride and phosphate,greater than 82%
same,drug precipitated,[1]; formate and aspartate,greater than 55%
same,drug precipitated,[1]; sucrose and lactobionate,less than 10%
same,drug precipitated,"[1]; sulfate, citrate, and succinate",greater than 97%
same,Cures,ES2 Tumor Xenograft,1
same,Log Cell Kill,ES2 Tumor Xenograft,2.14
same,Maximum Body Weight loss,ES2 Tumor Xenograft,9%
same,T − C (to reach 400% tumor volume increase),ES2 Tumor Xenograft,27 days
same,Toxic Deaths,ES2 Tumor Xenograft,3
same,IC50,BT-20 (Breast),0.0866 ng/mL
same,IC50,LS-513 (Cecum),4.89 ng/mL
same,Log 10 Cell Kill,KB Head/Neck Tumor; 6 mg/kg iv,0.87
same,"T-C (time to reach 1,000% Tumor Volume, treated vs control)",KB Head/Neck Tumor; 6 mg/kg iv,9 days
same,% TGI,KB Head/Neck Tumor; 6 mg/kg iv,54%
same,Log 10 Cell Kill,KB Head/Neck Tumor; 9 mg/kg iv,1.64
same,"T-C (time to reach 1,000% Tumor Volume, treated vs control)",KB Head/Neck Tumor; 9 mg/kg iv,17 days
same,% TGI,KB Head/Neck Tumor; 9 mg/kg iv,73%
same,IC50,U251 (Glioblastoma),3.11 ng/mL
same,IC50,[2],3.61 ng/mL
same,IC50,ES-2 (ovarian carcinoma),0.489 ng/mL
same,IC50,MDA-MB-468 (Breast),6.42 ng/mL
same,IC50,LOX (melanoma),1.41 ng/mL
same,IC50,[3],584 ng/mL
